What was measured:
[1] = Drug related adverse events (CTCAE version 4.0); format: in vivo, human
Protocol: Safety assessments including complete blood counts, serum chemistries, liver enzymes and toxicity evaluations were completed at baseline, day 1 and 15 of cycle 1, and then day 1 of every cycle thereafter. Toxicities were evaluated and graded using the CTEP NCI Common Terminology Criteria for Adverse Events (CTCAE), version 4.0.

RAF1 = settings: cited from earlier work
[2] = Day 10 of riluzole single agent treatment (100 mg BID), advanced melanoma patients, n = 9; cited from earlier work
[3] = drug related AE, Grade ≥3, n=35
[4] = drug related AE, any grade, n=35

CNC(=O)c1cc(Oc2ccc(NC(=O)Nc3ccc(Cl)c(C(F)(F)F)c3)cc2)ccn1 [sorafenib]
Abdominal Pain [1, 3]: 0 | Alkaline Phosphatase Increase [1, 3]: 2 | Anemia [1, 3]: 1 | Anorexia [1, 3]: 0 | Arthralgia [1, 3]: 1 | Cardiac troponin I increased [1, 3]: 1 | Congestive Heart Failure [1, 3]: 1 | Fatigue [1, 3]: 4 | Hypertension [1, 3]: 1 | Hypokalemia [1, 3]: 1 | Hyponatremia [1, 3]: 2 | Hypophosphatemia [1, 3]: 4 | Lipase Increase [1, 3]: 2 | Lymphocyte Count Decrease [1, 3]: 6 | Maculopapular Rash [1, 3]: 4 | Myocardial infarction [1, 3]: 1 | Neutrophil count decrease [1, 3]: 0 | Palmar-plantar erythrodysesthesia syndrome [1, 3]: 1 | Pruritus [1, 3]: 1 | White Blood Cell Decreased [1, 3]: 2 | Wound complication [1, 3]: 1 | Abdominal Pain [1, 4]: 0 | Acute Coronary Syndrome [1, 4]: 1 | Acute Kidney Injury [1, 4]: 0 | Alanine Aminotransferase Increase [1, 4]: 1 | Alkaline Phosphatase Increase [1, 4]: 2 | Alopecia [1, 4]: 0 | Anemia [1, 4]: 8 | Anorexia [1, 4]: 6 | Arthralgia [1, 4]: 1 | Aspartate Aminotransferase Increase [1, 4]: 3 | Ataxia [1, 4]: 0 | Blood Bilirubin Increase [1, 4]: 2 | Blurred vision [1, 4]: 0 | Bullous dermatitis [1, 4]: 1 | Cardiac troponin I increased [1, 4]: 1 | Congestive Heart Failure [1, 4]: 1 | Cough [1, 4]: 0 | Depression [1, 4]: 0 | Diarrhea [1, 4]: 8 | Dizziness [1, 4]: 0 | Dry Mouth [1, 4]: 1 | Dry skin [1, 4]: 4 | Dysarthria [1, 4]: 0 | Dysgeusia [1, 4]: 1 | Dyspepsia [1, 4]: 1 | Dyspnea [1, 4]: 0 | Edema (limbs) [1, 4]: 1 | Fatigue [1, 4]: 13 | Fecal Incontinence [1, 4]: 1 | Fever [1, 4]: 0 | Flatulence [1, 4]: 0 | Gastrointestinal Fistula [1, 4]: 1 | Gastroparesis [1, 4]: 0 | Headache [1, 4]: 0 | Hoarseness [1, 4]: 0 | Hypercalcemia [1, 4]: 1 | Hyperglycemia [1, 4]: 4 | Hyperkalemia [1, 4]: 3 | Hypertension [1, 4]: 6 | Hypoalbuminemia [1, 4]: 3 | Hypocalcemia [1, 4]: 2 | Hypokalemia [1, 4]: 1 | Hypomagnesemia [1, 4]: 2 | Hyponatremia [1, 4]: 7 | Hypophosphatemia [1, 4]: 11 | Hypotension [1, 4]: 1 | Hypothyroidism [1, 4]: 1 | Increased blood urea nitrogen [1, 4]: 1 | Insomnia [1, 4]: 0 | Lipase Increase [1, 4]: 5 | Lymphocyte Count Decrease [1, 4]: 10 | Maculopapular Rash [1, 4]: 11 | Mucosal infection [1, 4]: 1 | Mucositis oral [1, 4]: 5 | Muscle weakness [1, 4]: 1 | Myalgia [1, 4]: 0 | Myocardial infarction [1, 4]: 1 | Nausea [1, 4]: 2 | Neutrophil count decrease [1, 4]: 0 | Oral pain [1, 4]: 1 | Palmar-plantar erythrodysesthesia syndrome [1, 4]: 11 | Peripheral Sense Neuropathy [1, 4]: 1 | Platelet Count Decrease [1, 4]: 3 | Pruritus [1, 4]: 4 | Serum amylase increased [1, 4]: 3 | Urinary Tract Infection [1, 4]: 1 | Voice Alteration [1, 4]: […] | Vomiting [1, 4]: 1 | Weight Loss [1, 4]: 2 | White Blood Cell Decreased [1, 4]: 2 | Would dehiscence [1, 4]: 1 | Wound complication [1, 4]: 1 | patients with toxicities attributed to the drug (alone), number ([1]; of 35 patients): 28 | patients with toxicities attributed to the drug by the treating investigator ([1]; of 35 patients): 80% | IC50 (RAF1): […]

Nc1nc2ccc(OC(F)(F)F)cc2s1 [riluzole]
riluzole trough levels, geomean [2]: 78.4 ng/mL

From paper PMC10085060 (Oncotarget, 2023)
